Assay: solvent given as SMILES

CCCCCCCCCCCCCCCCCCCCCCCCCCCC
Details | solvation free energy, 298 K [kcal/mol]
in CC(=O)N(C)C | -18.9
in CC(C)(C)O | -16.9
in CCC(C)=O | -17.1
in CCCCCO | -17
in CCCCO | -16.7
in CCCCOC(C)=O | -17.9
in CCCO | -16.4
in CN(C)C=O | -19
in Cc1ccc(C)cc1 | -19.3
in Cc1cccc(C)c1 | -19.2
in ClCCl | -18.6
in O | 5.92

CCCC[N+](=O)[O-]
Details | solvation free energy, 298 K [kcal/mol]
in CCCCCC | -4.64
in O | -3.1

CCCCOCCO
Details | solvation free energy, 298 K [kcal/mol]
in O | -6.25

CCC(=O)c1c(C)[nH]n(-c2ccccc2)c1=O
Details | solvation free energy, 298 K [kcal/mol]
in O | -9.74

COP(=S)(OC)Oc1ccc([N+](=O)[O-])cc1
Details | solvation free energy, 298 K [kcal/mol]
in O | -7.19

Clc1c(Cl)c(Cl)c(Cl)c(Cl)c1Cl
Details | solvation free energy, 298 K [kcal/mol]
in C1CCOC1 | -11
in C1COCCO1 | -10.8
in CC(C)CC(C)(C)C | -10
in CC(C)CCO | -9.59
in CCCC(C)O | -9.45
in CCCCC(CC)CO | -9.86
in CCCCCC | -10.2
in CCCCCCC | -10.2
in CCCCCCCC | -10.3
in CCCCCCCCC=CCCCCCCCC(=O)OCC(COC(=O)CCCCCCCC=CCCCCCCCC)OC(=O)CCCCCCCC=CCCCCCCCC | -9.52
in CCCCCCCCCC | -10.3
in CCCCCCCCO | -9.78
in CCCCCl | -10.6
in CCCCOC(C)=O | -10.4
in CCCCOCCCC | -10.4
in CCOC(C)=O | -10.2
in COC(C)=O | -10.2

CCCC
Details | solvation free energy, 298 K [kcal/mol]
in C1CCC2CCCCC2C1 | -2.25
in C1COCCO1 | -2.13
in CC1COC(=O)O1 | -1.19
in CC#N | -1.49
in CC(=O)N(C)C | -1.75
in CC(C)(C)O | -2.07
in CC(C)=O | -2.13
in CC(C)CCO | -2.02
in CC(C)CO | -2.03
in CC(C)O | -2.03
in CC(CC(C)(C)C)CC(C)(C)CC(C)(C)C | -2.97
in CCC(C)(C)O | -2.16
in CCC(C)=O | -2.31
in CCC(C)CO | -2.03
in CCC(O)CC | -2.07
in CCCC(C)O | -2.03
in CCCCC | -2.61
in CCCCCC | -2.55
in CCCCCCC | -2.54
in CCCCCCCC | -2.49
in CCCCCCCCC | -2.43
in CCCCCCCCCC | -2.43
in CCCCCCCCCCCC | -2.32
in CCCCCCCCCCCCC | -2.31
in CCCCCCCCCCCCCC | -2.23
in CCCCCCCCCCCCCCC | -2.24
in CCCCCCCCCCCCCCCC | -2.21
in CCCCCCCCO | -2.09
in CCCCCCCO | -1.96
in CCCCCO | -2.03
in CCCCO | -1.87
in CCCCOCCCC | -2.44
in CCCO | -1.98
in CCO | -1.91
in CN1CCCC1=O | -1.56
in CN(C)C=O | -1.47
in CN(C)P(=O)(N(C)C)N(C)C | -1.85
in CO | -1.73
in COC(C)=O | -1.95
in COCCOCCO | -1.36
in COCCOCCOC | -1.89
in COCCOCCOCCOC | -1.64
in COCCOCCOCCOCCOC | -1.62
in CS(C)=O | -0.99
in Cc1ccc(C)cc1 | -2.33
in Cc1cccc(C)c1 | -2.34
in Cc1ccccc1C | -2.31
in ClC(Cl)(Cl)Cl | -2.67
in Clc1ccccc1 | -2.32
in Ic1ccccc1 | -2.05
in N#Cc1ccccc1 | -1.93
in NC=O | -0.12
in Nc1ccccc1 | -1.4
in O | 2.07
in O=CN1CCOCC1 | -0.91
in OC1CCCCC1 | -1.8
in OCCCOCCCO | -1.24
in OCCO | -0.29
in OCc1ccccc1 | -1.51
in c1ccccc1 | -2.39

CCCC(=O)CC(=O)CC
Details | solvation free energy, 298 K [kcal/mol]
in O | -4.35

CC(C)COC=O
Details | solvation free energy, 298 K [kcal/mol]
in O | -2.22

FCC(F)(F)F
Details | solvation free energy, 298 K [kcal/mol]
in CCCCCCCC(=O)OCC(COC(=O)CCCCCCC)OC(=O)CCCCCCC | -1.21
in CCCCCCCCC | -0.76
in CCCCCCCCO | -0.89
in CN1CCCC1=O | -1.96
in CN(C)C=O | -2.21
in O | 0.56

CCN
Details | solvation free energy, 298 K [kcal/mol]
in CCCCCC | -2.29
in CCCCCCC | -2.09
in CCCCCCCC | -2.05
in CCCCCCCCCC | -1.93
in CCCCCCCCCCCCCCCC | -2.22
in O | -4.5

FC(Cl)Cl
Details | solvation free energy, 298 K [kcal/mol]
in CN1CCCC1=O | -1.34
in CN(C)C=O | -1.35
in O | 1.54

CCCCCCCCN
Details | solvation free energy, 298 K [kcal/mol]
in CCCCCCC | -6.96
in O | -3.73

ClCC(Cl)(Cl)Cl
Details | solvation free energy, 298 K [kcal/mol]
in O | -1.43

Clc1ccc(Cl)c(-c2cc(Cl)c(Cl)c(Cl)c2)c1
Details | solvation free energy, 298 K [kcal/mol]
in O | -3.61

CCCC1CCCCC1
Details | solvation free energy, 298 K [kcal/mol]
in CN1CCCC1=O | -4.57
in NC=O | -1.91
in O | 1.8

c1ccc2c(c1)[nH]c1ccccc12
Details | solvation free energy, 298 K [kcal/mol]
in CC(=O)N(C)C | -14
in CN1CCCC1=O | -14.5
in O | -7.18

Cc1cccc(C)c1N
Details | solvation free energy, 298 K [kcal/mol]
in O | -5.21

Clc1cc(Cl)c(-c2c(Cl)c(Cl)cc(Cl)c2Cl)cc1Cl
Details | solvation free energy, 298 K [kcal/mol]
in O | -2.77

O=C(O)c1ccc(O)cc1
Details | solvation free energy, 298 K [kcal/mol]
in C1CCOC1 | -11.4
in C1COCCO1 | -11.2
in CC(=O)N(C)C | -11.8
in CC(C)(C)O | -11.2
in CC(C)=O | -11.5
in CC(C)CO | -11.3
in CC(C)O | -11.5
in CCC(C)O | -11.2
in CCCCCCCCO | -11
in CCCCCCO | -11.2
in CCCCCO | -11.3
in CCCCO | -11.4
in CCCCOC(C)=O | -10.8
in CCCCOCCCC | -10.2
in CCCO | -11.5
in CCO | -11.7
in CCOC(C)=O | -11
in CCOCC | -10.8
in CN(C)C=O | -11.8
in CNC=O | -11.7
in O | -9.25

Cc1ccc(N(O)C(=O)COc2ccccc2)cc1
Details | solvation free energy, 298 K [kcal/mol]
in O | -12.8

CCCCC=O
Details | solvation free energy, 298 K [kcal/mol]
in CC(C)CC(C)(C)C | -4.24
in CCCCCCCC | -3.97
in CN1CCCC1=O | -4.67
in CO | -4.87
in NC=O | -3.77
in O | -3.01
in O=CN1CCOCC1 | -4.49
in [2H]O[2H] | -2.89

NC=O
Details | solvation free energy, 298 K [kcal/mol]
in CC(C)c1ccccc1 | -4.1
in CCc1ccccc1 | -4.58
in O | -10.2

CC1CCC(C(C)C)C(=O)C1 (configuration not stated)
Details | solvation free energy, 298 K [kcal/mol]
in O | -2.53

CCCCCCCCCCCCCCCCO
Details | solvation free energy, 298 K [kcal/mol]
in CC(C)O | -13.7
in CCC(C)=O | -13.8
in CCCCCCCCC=CCCCCCCCC(=O)OCC(COC(=O)CCCCCCCC=CCCCCCCCC)OC(=O)CCCCCCCC=CCCCCCCCC | -11.6
in CCCCCCCCCCO | -13.4
in CCCCCCCCO | -13.5
in CCCCCCO | -13.6
in CCCCOCCCC | -13.1
in CCOCC | -13.5
in O | -2.76

FC(F)(Cl)C(F)(Cl)Cl
Details | solvation free energy, 298 K [kcal/mol]
in C1CCOC1 | -3.37
in CC(C)=O | -3.31
in CCC(C)=O | -3.36
in CCOC(C)=O | -3.4
in COC(C)(C)C | -3.62
in COC(C)=O | -3.38
in Cc1cccc(C)c1 | -3.37
in ClC(Cl)(Cl)Cl | -3.27
in ClC(Cl)Cl | -3.46
in ClCCCl | -2.8
in O | 1.77

N
Details | solvation free energy, 298 K [kcal/mol]
in CC(C)=O | -2.02
in CC(C)CO | -2.54
in CC(C)O | -2.37
in CCC(C)=O | -1.94
in CCCCCCC | -1.27
in CCCCO | -2.4
in CCCO | -2.4
in CCO | -2.65
in CN1CCCC1=O | -1.85
in CO | -3.08
in ClC(Cl)Cl | -2.41
in Clc1ccccc1 | -1.36
in O | -4.34

CCCCC(=O)OCCC(C)CCC=C(C)C (configuration not stated)
Details | solvation free energy, 298 K [kcal/mol]
in O | -2.51

CCc1cnccn1
Details | solvation free energy, 298 K [kcal/mol]
in O | -5.45
